Columns and labels:
[1] = molecular target: T1, transfected human CB1 receptor (Homo sapiens, UniProt P21554); experiment: In-vitro determination of affinity to CB1/CB2 receptors, radioligand [3H]-CP55940; settings: binding to CB1/CB2 receptors as described, table does not name the subtype, text points to CB1
T1 construct: purchased Receptor Biology, Inc
Protocol: The in-vitro determination of the affinity of the inventive quaternary ammonium salts of substituted pyrazoline compounds to CB1/CB2-Rezeptors is carried out as described in the publication of Ruth A. Ross, Heather C. Brockie et al., “Agonist-inverse agonist characterization at CB1 and CB2 cannabinoid receptors of L-759633, L759656 and AM630”, British Journal of Pharmacology, 126, 665-672, (1999), whereby the transfected human CB1 and CB2 receptors of Receptor Biology, Inc. are used. The radioligand used for both receptors is [^3H]-CP55940. The respective parts of the description are hereby incorporated by reference and forms part of the present disclosure.
The affinity of the inventive substituted pyrazoline compounds to CB1/CB2 receptors was determined as described above.

[2] = molecular target: T2, recombinant human cannabinoid 1 receptor (CB1), CHO cell membranes (Homo sapiens, UniProt P21554); experiment: [35S]GTPγS binding assay, antagonism against WIN 55,212-2; format: biochemical; settings: compound at 1 μM against WIN 55,212-2 dose response; 100% = effect of internal standard CB1-antagonist
T2 construct: expressed in transfected cells; membranes prepared
Protocol: Chinese hamster ovary (CHO) cells stably expressing recombinant human cannabinoid 1 receptor (CB1) were cultured in nutrient mixture Ham's F 12 supplemented with 10% heat-inactivated fetal bovine serum, 2 mM L-glutamine, 50 U/ml penicillin, 50 U/ml streptomycin and 0.5 mg/ml geneticin. In order to obtain cells, culture flasks were washed twice with phosphate buffered saline and scraped. Then, cells were collected by centrifugation (200×g, 10 min) and stored dry at −80° C. Cells were homogenized in ice-cold 20 mM HEPES, 10 mM EDTA (pH 7.5) and centrifuged at 40,000×g for 15 min at 4° C. The pellet was resuspended in 20 mM HEPES, 0.1 mM EDTA (pH 7.5) and centrifuged for 15 min at 4° C. The final pellet was resuspended in 20 mM HEPES, 0.1 mM EDTA (pH 7.5), and divided in aliquots and stored at −80° C. until use.
The reaction was performed in 96-well plates. Membranes (15 µg protein/well) were incubated for 60 min at 30° C. in buffer (50 mM HEPES, 100 mM KCl, 5 mM MgCl2, 1 mM EDTA, 0.1% wt/vol bovine serum albumin, […], saponin (10 μg/ml), 0.5 nM [^35S]GTPγS, pH 7.4) with compound at 1 μM final concentration in either the absence or presence of dose response curve of agonist WIN 55, 212-2 between 3 nM and 3 μM. The incubation was terminated by rapid filtration through Millipore Multiscreen glass fiber FB, and rinsed two-times with ice-cold assay buffer. Filter plates were dried and 30 μl of scintillation liquid was added. Radioactivity was determined using Wallac Microbeta Trilux. Each experiment was performed at least in duplicate. A WIN 55, 212-2 dose-response was systematically performed.
The average of basal [^35S]GTPγS binding was subtracted from all binding data. In order to compare the antagonism results from one screening campaign to another one, the difference between the maximal agonist effect of WIN 55, 212-2 alone, and the maximal antagonism effect due to WIN 55, 212-2 with an internal standard CB1-antagonist was defined as 100%.
The determination of cannabinoid activity in-vivo was determined as described above.

[3] = In vivo testing for antiobesic activity, acute treatment; settings: rats, acute oral administration, HCl-salts; body weight difference vs control
Protocol: Normally handled rats were habituated to a reversed cycle 12/12 h, and the compound as well as saline was acutely orally administered. After administration the cumulated food intake (g) was measured at 6 h and 23 h. Following that the difference in body weight between control and compound treated animals was measured.

T1 sequence (P21554 whole entry): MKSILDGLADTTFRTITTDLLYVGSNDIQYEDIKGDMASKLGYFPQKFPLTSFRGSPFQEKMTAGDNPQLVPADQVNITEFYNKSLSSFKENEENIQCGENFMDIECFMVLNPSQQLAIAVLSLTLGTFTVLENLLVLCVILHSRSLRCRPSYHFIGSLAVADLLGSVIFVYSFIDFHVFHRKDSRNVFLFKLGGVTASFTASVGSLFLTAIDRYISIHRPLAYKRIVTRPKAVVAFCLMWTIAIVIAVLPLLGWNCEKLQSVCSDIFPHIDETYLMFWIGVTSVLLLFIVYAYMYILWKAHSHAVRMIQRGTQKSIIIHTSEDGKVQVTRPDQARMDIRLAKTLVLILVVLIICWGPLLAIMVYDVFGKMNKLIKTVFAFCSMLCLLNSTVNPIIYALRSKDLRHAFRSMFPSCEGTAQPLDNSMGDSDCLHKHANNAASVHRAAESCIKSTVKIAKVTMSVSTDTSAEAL
T2 sequence (P21554 whole entry): as above

Row | Structure (SMILES) | Antagonism (%) [2] | IC50 [1] | Antiobesic activity (reducing weight) [3]
1 | C[C@H]1C(C(=O)NN2CCCCCC2)=NN(c2ccc(Cl)cc2Cl)[C@H]1c1ccc(F)cc1.Cl (relative stereo) [7 (HCl), cis-N-(azepan-1-yl)-5-(4-fluorophenyl)-1-(2,4-dichlorophenyl)-4-methyl-4,5-dihydro-1H-pyrazole-3-carboxamide hydrochloride] | 83 ± 6% | 122 nM | 
2 | C[C@H]1C(C(=O)NN2CCCCCC2)=NN(c2ccc(Cl)cc2Cl)[C@H]1c1ccc(Br)cc1.Cl (relative stereo) [Example 5, cis-N-(azepan-1-yl)-5-(4-bromophenyl)-1-(2,4-dichlorophenyl)-4-methyl-4,5-dihydro-1H-pyrazole-3-carboxamide hydrochloride] | 133 ± 5% | 71 ± 2 nM | active in this model, reducing weight
3 | COc1ccc([C@H]2[C@@H](C)C(C(=O)NN3CCCCCC3)=NN2c2ccc(Cl)cc2Cl)cc1.Cl (relative stereo) [Example 9, cis-N-(azepan-1-yl)-1-(2,4-dichlorophenyl)-5-(4-methoxyphenyl)-4-methyl-4,5-dihydro-1H-pyrazole-3-carboxamide hydrochloride] | 117 ± 5% | 61 nM | active in this model, reducing weight

Continued, in another order:

Row | Antagonism (%) [2] | Structure (SMILES) | IC50 [1] | Antiobesic activity (reducing weight) [3]
4 | 99 ± 5% | C[C@H]1C(C(=O)NN2CCCCCC2)=NN(c2ccc(Cl)cc2Cl)[C@H]1c1ccc(Cl)cc1.Cl (relative stereo) [Example 1, cis-N-(azepan-1-yl)-5-(4-chlorophenyl)-1-(2,4-dichlorophenyl)-4-methyl-4,5-dihydro-1H-pyrazole-3-carboxamide hydrochloride] | 7.9 ± 2.8 nM | active in this model, reducing weight
5 | 52% | C[C@H]1C(C(=O)NN2CCCCCC2)=NN(c2ccc(Cl)cc2Cl)[C@H]1c1ccc(F)cc1 [Example 7] |  | 

From patent US20080269201A1, “Azepane- or Azocane-Substituted Pyrazoline Derivatives, Their Preparation and Use as Medicaments” (LABORATORIOS DEL DR. ESTEVE, S.A., priority 2005, published 2008)
